According to patent publication US20210177023A1, “COMPOUNDS FOR SWEETNESS ENHANCEMENT” (International Flavors & Fragrances Inc., priority 2019, published 2021):

Key:
Format in all cases: in vivo, human
[1] = Taste and smell of the compound alone
Protocol: A sucrose solution (4%) was prepared in water. Each of ligustrosidic acid and 2′-hydroxy ligustrosidic acid solutions of different concentrations was prepared in ethanol solution in water (50%). Ligustrosidic acid and 2′-hydroxy ligustrosidic acid were evaluated at 1 and 200 ppm, respectively. […] A sucrose solution (4%) was prepared in water. Each of verbascoside and isoverbascoside solutions of different concentrations was prepared in ethanol solution in water (50%). Verbascoside and isoverbascoside were evaluated at 1 and 200 ppm, respectively.

[2] = Enhancement of sucrose sweetness (flavor profile of sucrose solution with added substance); conditions: sucrose solution (4%); for overall effect when used with sucrose (summary in text): over the levels tested; for effect observed in sucrose solution: compound 5 ppm
Protocol: A sucrose solution (4%) was prepared in water. Each of ligustrosidic acid and 2′-hydroxy ligustrosidic acid solutions of different concentrations was prepared in ethanol solution in water (50%). Ligustrosidic acid and 2′-hydroxy ligustrosidic acid were evaluated at 1 and 200 ppm, respectively. […] Solutions of Chaenomeles speciosa leave extract containing ligustrosidic acid (0.61%), 2′-hydroxy ligustrosidic acid (0.62%), verbascoside (0.69%) and isoverbascoside (0.21%) were prepared in ethanol solution in water (50%) to obtain a series of concentrations ranging from 1 to 1000 ppm. Solutions of sucrose (4%) and Luo Han Guo (120 ppm) were prepared as above (EXAMPLE II and III). In addition, solutions of fructose (3.4%), Reb A (GLG Life Tech Corporation, Canada) (90 ppm) and GSG (Glucosyl Steviol Glucosides, GLG Life Tech Corporation, Canada) (200 ppm) were also prepared in water. The sucrose solution (4%) with the addition of various amount of Chaenomeles speciosa leave extract was evaluated. […] Each of verbascoside and isoverbascoside solutions of different concentrations was prepared in ethanol solution in water (50%). Verbascoside and isoverbascoside were evaluated at 1 and 200 ppm, respectively.

[3] = Enhancement of Luo Han Guo sweetness (flavor profile of Luo Han Guo solution with added substance); conditions: Luo Han Guo solution (120 ppm), over the levels tested
Protocol: A Luo Han Guo (Biovittoria Ltd., New Zealand) solution was prepared in water (120 ppm). Ligustrosidic acid and 2′-hydroxy ligustrosidic acid solutions were prepared as above (EXAMPLE II). The flavor profile of the Luo Han Guo solution with added ligustrosidic acid and 2′-hydroxy ligustrosidic acid is reported in the following: The effect of botanical extract such as Chaenomeles speciosa leave extract on sweetness was examined. Solutions of Chaenomeles speciosa leave extract containing ligustrosidic acid (0.61%), 2′-hydroxy ligustrosidic acid (0.62%), verbascoside (0.69%) and isoverbascoside (0.21%) were prepared in ethanol solution in water (50%) to obtain a series of concentrations ranging from 1 to 1000 ppm. Solutions of sucrose (4%) and Luo Han Guo (120 ppm) were prepared as above (EXAMPLE II and III). In addition, solutions of fructose (3.4%), Reb A (GLG Life Tech Corporation, Canada) (90 ppm) and GSG (Glucosyl Steviol Glucosides, GLG Life Tech Corporation, Canada) (200 ppm) were also prepared in water. The Luo Han Guo solution (120 ppm) with the addition of various amount of Chaenomeles speciosa leave extract was evaluated. The flavor profile is as follows: A Luo Han Guo (Biovittoria Ltd., New Zealand) solution was prepared in water (120 ppm). Verbascoside and isoverbascoside solutions were prepared as above (EXAMPLE XIII). The flavor profile of the Luo Han Guo solution with added verbascoside and isoverbascoside is reported in the following: […]

Compound | taste and smell of the compound itself ([1]; evaluated at 200 ppm) | overall effect when used with sucrose (summary in text) [2] | overall effect when used with Luo Han Guo (summary in text) [3] | taste and smell of the compound itself ([1]; evaluated at 1 ppm) | effect observed in sucrose solution [2] | also measured
2′-hydroxy ligustrosidic acid | devoid of taste and smell | strong effect in sweetness enhancement | strong effect in sweetness enhancement | – | – | –
COC(=O)C1=COC(OC2OC(CO)C(O)C(O)C2O)C(=CC(=O)O)C1CC(=O)OCCc1ccc(O)cc1 (stereo in doubt) [Ligustrosidic Acid, [3-(carboxymethylene)-2-(β-D-glucopyranosyloxy)-3,4-dihydro-5-(methoxycarbonyl)]-2H-pyran-4-acetic acid-α-[2-(4-hydroxyphenyl)ethyl] ester] | – | – | – | devoid of taste and smell | – | overall effect when used with sucrose (summary in text) ([2]; listed as Ligustrosidic acid): particularly strong effect; overall effect when used with sucrose (summary in text) ([2]; listed as ligustrosidic acid): enhanced overall sweetness, body and mouthfeel; overall effect when used with Luo Han Guo (summary in text) ([3]; listed as Ligustrosidic acid): particularly strong effect; overall effect when used with Luo Han Guo (summary in text) ([3]; listed as ligustrosidic acid): enhanced overall sweetness, body and mouthfeel
C[C@@H]1O[C@@H](O[C@@H]2[C@@H](O)[C@H](OCCc3ccc(O)c(O)c3)O[C@H](COC(=O)/C=C/c3ccc(O)c(O)c3)[C@H]2O)[C@H](O)[C@H](O)[C@H]1O [Isoverbascoside, isoverbascoside] | devoid of taste and smell | enhanced overall mouthfeel | enhanced overall mouthfeel and suppressed Luo Han Guo's lingering off-taste | – | – | –
C[C@@H]1O[C@@H](O[C@@H]2[C@@H](O)[C@H](OCCc3ccc(O)c(O)c3)O[C@H](CO)[C@H]2OC(=O)/C=C/c2ccc(O)c(O)c2)[C@H](O)[C@H](O)[C@H]1O [Verbascoside, (E)-2-(3,4-dihydroxyphenyl)ethyl 3-O-(6-deoxy-α-L-mannopyranosyl)-4-[3-(3,4-dihydroxyphenyl)-2-propenoate]-β-D-Glucopyranoside] | – | particular effect in sweetness enhancement | particular effect in sweetness enhancement | devoid of taste and smell | – | –
C/C=C1/[C@H](O[C@@H]2O[C@H](CO)[C@@H](O)[C@H](O)[C@H]2O)OC=C(C(=O)OC)[C@H]1CC(=O)OCCc1ccc(O)cc1 [ligustroside] | – | – | – | – | Some mouthfeel, slight drying or slightly fruity effect | –
C/C=C1\C(OC2OC(CO)C(O)C(O)C2O)OC=C(C(=O)OCCc2ccc(O)c(O)c2)C1CC(=O)OCCc1ccc(O)c(O)c1 (stereo not shown) [multifloroside] | – | – | – | – | Some mouthfeel, slight drying or slightly fruity effect | –
